Six compounds from PubChem BioAssay AID2060336 (Molecular Pharmacology Branch, DTP, NCI, 2025) can be followed below.

The test deals with 958767-090-R-J1-PDC spheroid growth. Kind of test: Anticancer human tumor 958767-090-R-J1-PDC patient-derived head and neck squamous carcinoma cell line growth inhibition [IpAb]. To be noted: spheroids with HUVEC and MSC; for viability, T/C: stronger effect = lower value. The text has this: Combinatorial screen of targeted agents with ipatasertib and abemaciclib in multi-cell type tumor spheroids
A high-throughput screen of multi-cell type tumor spheroids was designed to identify active combinations of targeted small molecules and ipatasertib or abemaciclib. Complex spheroids include a stromal component modeled by human endothelial cells (HUVEC) and fibroblasts modeled by human mesenchymal stem cells (MSCs). The concentration ranges selected for each drug and investigational agent were based upon clinically achievable concentrations if the clinical Cmax of the agent was known.
Compounds. The drugs and investigational agents: ipatasertib (NSC767898), abemaciclib(NSC768073), selumetinib (NSC741078), trametinib (758246), adavosertib (NSC754352), everolimus (NSC733504), sapanisertib (NSC764658), vemurafenib (NSC761431), venetoclax (NSC766270), copanlisib (NSC809693), apelisib (NSC765974), palbociblib (NSC758247), vemurafenib (NSC761431), dabrafenib (NSC764134), ravoxertinib (NSC781343), BMS-387032 (NSC767048), sotorasib (NSC818433), talazoparib (NSC767125) and afursertib (NSC778305), were obtained from the National Cancer Institute (NCI) Developmental Therapeutics Program Chemical Repository. The FDA-approved anticancer drug set is available from the NCI Developmental Therapeutics Program. […] The stock solutions were prepared in dimethyl sulfoxide (DMSO, Sigma-Aldrich, St. Louis, MO, cat. D2650) at 800-fold the tested concentration and stored at -70 degrees C prior to their use. All drugs and investigational agents were tested over a range starting from a high concentration at or near the clinical Cmax and decreasing in half-log increments. If the clinical Cmax for an agent had not been determined, the highest concentration tested was 10 microM.
NCI60 Cell Culture. NCI60 cell lines were obtained from the NCI Developmental Therapeutics Program Tumor Repository. For each lot of cells, the Repository performed Applied Biosystems AmpFLSTR Identifiler testing with PCR amplification to confirm consistency with the published Identifier STR profile for each cell line. Cells were kept in continuous culture for no more than 20 passages. The optimal seeding densities for each of the cell lines at each time point assessed were determined prior to performing the concentration response studies. Briefly, the NCI60 human tumor lines were grown as monolayers in RPMI 1640 medium supplemented with 10% FBS and 2 mmol/L L-glutamine.
An additional 9 lines were from the NCI60 cell line panel including MDA-MB-231 breast carcinoma, MDA-MB-468 breast carcinoma, MCF7 breast carcinoma, Hs578T breast carcinoma, MALME-3M melanoma, SK-MEL-2 melanoma, SK-OV-3 ovarian carcinoma, DU-145 prostate carcinoma, PC-3 prostate carcinoma, all cell lines along with major genetic alterations are listed on Table 2. Pooled donor human umbilical vein endothelial cells (HUVEC, Lonza, cat. CC-2519) and human mesenchymal stem cells (hMSC, Lonza, cat. PT-2501) were purchased from Lonza (Walkersville, MD).
PDMR cell lines were grown in complete medium (DC medium): Dulbecco's modified Eagle's medium (DMEM)/F12 supplemented with 5% fetal bovine serum (FBS), 2 mM L-glutamine, 100 U/mL penicillin and 100 µg/ml streptomycin, 0.4 µg/ml hydrocortisone, 10 ng/ml epidermal growth factor (EGF) recombinant human protein, 24 µg/mL adenine, and 0.1 mg/mL primocin. During culture from frozen stock vials, PDMR cells were cultured in the same medium containing 10 µM Y-27632 (see Table 3). The PDCs were cultured in complete DMEM/F12 media without 10 microM Y-27632 dihydrochloride for at least two passages prior to the screen. The pooled donor HUVEC and hMSC were cultured in endothelial cell growth medium 2 (PromoCell, Heidelberg, Germany, cat. C-22011) and mesenchymal stem cell growth medium 2 (PromoCell, cat. C-28009), respectively. For all experiments, HUVEC and hMSC were used at passages </=5.
[…]

Where “and” joins values, the source holds several entries; their conditions need not be identical. Equal entries are not always repeated. Some results are limits rather than exact numbers.
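Also: spheroids exposed to agents for 7 days.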
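For viability, T/C in this document: 100% = DMSO vehicle control wells.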

In the case of `C=CC(=O)N1CCN(c2nc(=O)n(-c3c(C)ccnc3C(C)C)c3nc(-c4c(O)cccc4F)c(F)cc23)C(C)C1` (stereo unspecified), the viability, T/C by setting is: (compound 0.0316 µM) 99.7% and 95%; (compound 0.1 µM) 93.8% and 88.2%; (compound 0.316 µM) 97.1% and 102%; (compound 1 µM) 94.9% and 107%; (compound 3.16 µM) 83.6% and 75.9%; (compound 10 µM) 39.8%. The 50% inhibitory concentration (IC50) (curve of compound) was 7660 nM and 7220 nM.
As for `CC(C)NCC(C(=O)N1CCN(c2ncnc3c2C(C)CC3O)CC1)c1ccc(Cl)cc1` (stereo unspecified), the viability, T/C is 90.6% [middle of 13 runs] (compound 0.1 µM) and 50.7% [middle of 13 runs] (compound 1 µM).
Consider `CCN1CCN(Cc2ccc(Nc3ncc(F)c(-c4cc(F)c5nc(C)n(C(C)C)c5c4)n3)nc2)CC1`, for which the viability, T/C (compound 0.1 µM) is 63.6% [middle of 13 runs] and the viability, T/C (compound 1 µM) was 80.7% [middle of 12 runs]. Also, for the setting “compound alone, run of 06/01/2021”, the IC50 was > 1000 nM.
Regarding `Cn1ncc(Cl)c1-c1cc(C(=O)NC(CN)Cc2cccc(F)c2)sc1Cl` (stereo unspecified), the viability, T/C runs as follows: (compound 0.0316 µM) 81.8% and 95%; (compound 0.1 µM) 73.2% and 88.4%; (compound 0.316 µM) 68.2% and 60.5%; (compound 1 µM) 57.1% and 44.8%; (compound 3.16 µM) 39% and 31.4%; (compound 10 µM) 0.18% and 0.23%. Further, the IC50 (curve of compound) is 1540 nM and 837 nM.
As to `Cn1nccc1Nc1nccc(-c2ccn(C(CO)c3ccc(Cl)c(F)c3)c(=O)c2)n1` (stereo unspecified), the viability, T/C runs as follows: (compound 0.0316 µM) 92.1% and 96.5%; (compound 0.1 µM) 72.6% and 82.8%; (compound 0.316 µM) 71.3% and 72.6%; (compound 1 µM) 55.1% and 69.1%; (compound 3.16 µM) 54.4% and 50%; (compound 10 µM) 21.6% and 26.4%. Under “curve of compound”, the IC50 was 2000 nM and 2910 nM.
In the case of `Cn1cnc2c(F)c(Nc3ccc(Br)cc3Cl)c(C(=O)NOCCO)cc21` + CC(C)NCC(C(=O)N1CCN(c2ncnc3c2C(C)CC3O)CC1)c1ccc(Cl)cc1, the IC50 (curve of first compound, second compound 0.1 µM) was 18.2 nM; the IC50 (curve of first compound, second compound 0.316 µM) is < 9.49 nM; the IC50 (curve of first compound, second compound 1 µM) was < 9.49 nM; the IC50 (curve of first compound, second compound 3.16 µM) was < 9.49 nM; the IC50 (curve of first compound, second compound 10 µM) was < 9.49 nM. For the same compound, the viability, T/C reads like this: (second compound 0.1 µM, first compound 0.00949 µM) 62%; (second compound 0.1 µM, first compound 0.03 µM) 38.9%; (second compound 0.1 µM, first compound 0.0949 µM) 30.5%; (second compound 0.1 µM, first compound 0.3 µM) 20.8%; (second compound 0.1 µM, first compound 0.949 µM) 17.7%; (second compound 0.1 µM, first compound 3 µM) 9.06%. The viability, T/C is 36% (second compound 0.316 µM, first compound 0.00949 µM); 26.8% (second compound 0.316 µM, first compound 0.03 µM); 19.2% (second compound 0.316 µM, first compound 0.0949 µM); 14.3% (second compound 0.316 µM, first compound 0.3 µM); 9.47% (second compound 0.316 µM, first compound 0.949 µM); 3.29% (second compound 0.316 µM, first compound 3 µM). Also, the viability, T/C is, setting by setting: (second compound 1 µM, first compound 0.00949 µM) 28.1%; (second compound 1 µM, first compound 0.03 µM) 21.7%; (second compound 1 µM, first compound 0.0949 µM) 15.2%; (second compound 1 µM, first compound 0.3 µM) 10.1%; (second compound 1 µM, first compound 0.949 µM) 4.39%; (second compound 1 µM, first compound 3 µM) 1.34%. The viability, T/C is 30.4% (second compound 3.16 µM, first compound 0.00949 µM); 18.6% (second compound 3.16 µM, first compound 0.03 µM); 10.1% (second compound 3.16 µM, first compound 0.0949 µM); 6.15% (second compound 3.16 µM, first compound 0.3 µM); 1.7% (second compound 3.16 µM, first compound 0.949 µM); 0.65% (second compound 3.16 µM, first compound 3 µM). Moreover, the viability, T/C reads like this: (second compound 10 µM, first compound 0.00949 µM) 21.7%; (second compound 10 µM, first compound 0.03 µM) 9.62%; (second compound 10 µM, first compound 0.0949 µM) 4.16%; (second compound 10 µM, first compound 0.3 µM) 1.43%; (second compound 10 µM, first compound 0.949 µM) 0.55%; (second compound 10 µM, first compound 3 µM) 0.67%.

A word on the viability, T/C: it is the result in the treated group divided by that in the control group, in per cent. For orientation: IC50 means the concentration needed to halve the response being measured.
